Measured values taken from patent publication US20080039362A1, “Combination drug therapy for reducing scar tissue formation” (Afmedica, Inc., priority 2006, published 2008).

Columns and labels:
[1] = test system: Human platelets; assay: Platelet adhesion and aggregation on surfaces; format: cell-based; conditions: 30 minutes exposure; FIG. 21
Description: Platelet aggregation, used as a marker of polymer hemocompatibility, was visualized using human platelets that were exposed to PEA and a fibrinogen-coated surface for 30 minutes.

[2] = test system: Human coronary artery endothelial cells (EC)
Description: Human peripheral blood monocytes were isolated by density centrifugation and magnetic separation (Miltenyi). Human platelets were purchased from the San Diego Blood Bank. Human coronary artery endothelial cells and aortic smooth muscle cells were purchased from Cambrex. Tissue culture polystyrene plates (TCPS; Falcon) with or without fibronectin coating (1 mg/ml) were used as controls.
Human coronary artery endothelial cells (EC) and aortic smooth muscle cells (SMC) were incubated on the polymers for 72 hours.

Substance: fibrinogen
- platelet adhesion and aggregation [1]: aggregated as expected

Substance: poly(ester amide) [PEA]
- toxic effects [2]: no toxic effects
